Measured values as given in patent publication US20170327789A1, “Modulation of Dopamine Receptor to Promote Neural Cell Differentiation” (The Hospital for Sick Children, priority 2014, published 2017).

Assays:
[1] = tested on: human fetal NSC; assay: RT-qPCR gene expression of neuronal lineage and cortical layer markers in differentiated cells; assay type: cell-based
Experimental: Hit validation for differentation. All retests for differentiation were done by a two step growth withdrawal method (as described in Sun et al. Mol. Cell. Neurosci. 38(2008) 245-258) with and without the test compound for 8 days. Test compounds included L-741,742 (3 μM), PNU96415E (15 μM), Ifenprodil tartrate (1.5 μM), McN A-343 (4 μM), and (−) —N-Phenylcarbamoyleseroline (6 μM). For mature neuronal marker analysis, human fetal NSC were differentiated for 3 weeks using L-741,742 (2-4 μM varying at different stages) in the two step growth withdrawal method.
The differentiated cells were further tested for gene expression of different neuronal lineage markers by RT-qPCR. A series of primers were designed for markers representing both neurotransmitters and domain specific regions as shown in Table 1.
L-741,742-differentiated neurons show cortical layer V marker. L-741,742-differentiated cells show increased expression of VGLUT1 and NEUROG2. NEUROG2 expression is required for promoting excitatory neurons in the dorsal cortical region during development. To test if L-741,742 promotes or specifies specific cortical layer neurons, a series of primers were designed to mark all layers of cortex; Reelin (layer 1), Tbr1 (layer V1), Ctip2 (Layer V), Satb2 (Layer II-III) and Foxg1 (telenchepalic marker) (Table 1). The expression of these markers in L-741,742-differentiated cells was determined by RT-qPCR. […] Thus, L-741,742-differentiated neurons express cortical layer V marker CTIP2 and telencephalic marker FOXG1, with VGLUT1 expression, indicating differentiation into cortical layer neurons.

[2] = tested on: human fetal NSC (hf5205); assay: Immunocytochemistry for Vglut1 after 3 weeks differentiation; assay type: cell-based; conditions: 2-step growth withdrawal
Experimental: Antibodies included: Beta-III tubulin (1:100 MAB1637), GFAP (1:1000, DAKO), Vglut1 (1:1000, Synaptic system), GABA (1:1000, Sigma). Appropriate fluorescent-conjugated secondary antibodies were used at 1:500 for 1 h at room temperature. Coverslips were mounted with fluorescent mounting medium (DAKO) containing DAPI (1:1000) and cells were imaged using Leica microscope. Hit validation for differentation. All retests for differentiation were done by a two step growth withdrawal method (as described in Sun et al. Mol. Cell. Neurosci. 38(2008) 245-258) with and without the test compound for 8 days. […] Immunocytochemistry was performed for a series of antibodies marking different classes of neurons based on their neurotransmitters including glutamatergic, dopaminergic, cholinergic and serotonergic. […] Vglut1 is a vesicular glutamate transporter required for transport of glutamate into synaptic vesicles of glutamatergic neurons.

[3] = tested on: human fetal NSC; assay: GABA staining of differentiated cells, week 1-3; assay type: cell-based; conditions: 2 week differentiated cells
Experimental: Immunocytochemistry. hfNS cells differentiated on coverslips were fixed with 4% paraformaldehyde and permeabilized with 0.3% Triton X100, block with 5% goat serum, and incubated with primary antibody overnight at 4° C. Antibodies included: Beta-III tubulin (1:100 MAB1637), GFAP (1:1000, DAKO), Vglut1 (1:1000, Synaptic system), GABA (1:1000, Sigma). Appropriate fluorescent-conjugated secondary antibodies were used at 1:500 for 1 h at room temperature. Coverslips were mounted with fluorescent mounting medium (DAKO) containing DAPI (1:1000) and cells were imaged using Leica microscope.
L-741,742-differentiated cells were also tested for GABA staining from week 1-3 and GABA positive cells were present in early in 1 week differentiated cells, showing up to 11% GABA positive neurons in 2 week differentiated cells (FIG. 5).

[4] = tested on: Hf5205 cells; assay: Single cell qPCR (Fluidigm analysis) of differentiated cells; assay type: cell-based, human; conditions: 3.5 μM, three weeks
Experimental: Single Cell qPCR (Fluidigm Analysis). Differentiated hfNS (hf5205) at week 3 was accutased and cells were resuspended in NS medium containing 1 μg per ml of propidium iodide and filtered through a 40 μm nylon cell strainer followed by live single cell sorting into a 96 well qPCR plate on a BD cell sorter. Cells were sorted into 10 μl of preamplification mix containing 40 nM of all primers for the 48 genes, and the following components of CellsDirect One-Step qRT-PCR kit (Invitrogen) as directed in protocol: 2× reaction mix, SuperScript III RT/platinum Taq mix. After sorting, samples were reverse transcribed and preamplified for 18 cycles. Preamplified samples were diluted (2×) with TE buffer and stored at −20° C. Sample and assay primer preparation for Fluidigm Dynamic arrays was done according to the manufacturer's recommendation. Samples were mixed with 2× assay loading reagent (Fluidigm Corp), 20× EvaGreen and TaqMan gene expression master mix. The Fluidigm Dynamic arrays were primed and loaded on the IFC controller and qPCR experiments were run on a Biomark system for genetic analysis.
Fluidigm Analysis. Hf5205 cells were differentiated in the two-step growth withdrawal method, with and without L-741,742 (3.5 μM) for three weeks. The differentiated cells were harvested and filtered through a 40 uM nylon filter and live sort single cell (based on PI staining) into a 96 well qRT-PCR plate containing pre-amplification mix of 48 primers, reverse transcribed and amplified for 48 genes (as described in Pasca et al. Nature Medicine (2011) November 27; 17(12) 1657-62) in one step using a kit from Invitrogen. Samples and primer pairs were prepared for Fluidigm as per protocol. Cells were identified based on presence of RPS18 and GAPDH, Data was analyzed based on population of cells expressing particular genes using different CT value cut off.
Characterization of L-741,742-differentiated cells by Fluidigm analysis. To further characterize the different population of neurons in L-741,742 differentiated culture, a single cell Fluidigm array was employed that can perform multiple qRT-PCR (48 genes or 96 genes) at a single cell level as shown in FIG. 6. Forty eight (48) gene primers marking various cell populations were used including, early progenitor marking dorsal, ventral or midbrain, differentiated neuronal markers based on neurotransmitters GABA or glutamatergic and markers specifying different cortical layers. Primer sequences were obtained from Pasca et al. Nature Medicine (2011) November 27; 17(12) 1657-62).

| Compound | Reelin expression ([1]; at the concentration tested) | Tbr1 expression ([1]; at the concentration tested) | increase in NEUROG2 expression ([1]; compared to the control) [fold] | increase in VGLUT1 expression ([1]; compared to the control) | increase in CTIP2 expression ([1]; cortical layer V marker) | increase in FOXG1 expression ([1]; telencephalic marker) [fold] | Vglut1-positive staining indicating differentiation into glutamatergic neurons [2] | GABA positive neurons [3] | expression of CAMKII (marking glutamatergic neurons) [4] | expression of EVT1 (marking lower cortical layer V) [4] | expression of MAP2 (marking neurons) [4] | expression of VGLUT1 (marking glutamatergic neurons) [4] | expression of VGLUT2 (marking glutamatergic neurons) [4] | expression of VGLUT3 (marking glutamatergic neurons) [4] |
| --- | --- | --- | --- | --- | --- | --- | --- | --- | --- | --- | --- | --- | --- | --- |
| Cc1c(C2CCN(CCc3ccccc3)CC2)noc1-c1ccc(Cl)cc1 [L-741,742] | not detectable | not detectable | 11 | 15-35 fold | approximately 23 fold | ~27 | Vglut1-positive staining | up to 11% | increase | increase | increase | increase | increase | increase |
| Cl.Cl.Fc1ccc(N2CCN(CCC3OCCc4ccccc43)CC2)cc1 (stereo not shown) [PNU96415E] |  |  |  |  |  |  | Vglut1-positive staining |  |  |  |  |  |  |  |
| Ifenprodil tartrate |  |  |  |  |  |  | Vglut1-positive staining |  |  |  |  |  |  |  |
